Reference: ChEMBL document CHEMBL1201862, “PubChem BioAssay data set” (2004)
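The compound was tested at five concentrations on cells cultured in 96-well plates, with a 48-hour exposure period. The concentration for 50% growth inhibition is given as GI50.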 Active and inactive are the calls of the source. Rule as the data show it: active = GI50 up to about 1.1 µM and inactive = higher.

Key:
Test in all cases: NCI-60 cell line screen, 48 h
[1] = tested on: HOP-62
[2] = tested on: SW-620
[3] = tested on: SF-539
[4] = tested on: LOX IMVI
[5] = tested on: UO-31
[6] = tested on: NCI-H460
[7] = tested on: UACC-62
[8] = tested on: SNB-75
[9] = tested on: EKVX
[10] = tested on: OVCAR-3
[11] = tested on: SF-295
[12] = tested on: U-251
[13] = tested on: HL-60
[14] = tested on: SK-MEL-28
[15] = tested on: HOP-92
[16] = tested on: SK-OV-3
[17] = tested on: SNB-19
[18] = tested on: SR

Measured: GI50

Cc1ccccc1NC(=O)C(=O)CC(=O)C1CCOC1=O (configuration not stated)
inactive: [1] > 100 µM | [2] > 100 µM | [3] > 100 µM | [4] > 100 µM | [5] > 100 µM | [6] > 100 µM | [7] > 100 µM | [8] > 100 µM | [9] > 100 µM | [10] > 100 µM | [11] > 100 µM | [12] > 100 µM | [13] > 100 µM | [14] > 100 µM | [15] > 100 µM | [16] > 100 µM | [17] > 100 µM

O=C1C2CC=CCC2C(=O)C12CCc1ccccc12 (configuration not stated)
inactive: [1] > 100 µM | [2] > 100 µM | [4] > 100 µM | [5] > 100 µM | [6] > 100 µM | [7] > 100 µM | [8] > 100 µM | [9] > 100 µM | [10] > 100 µM | [11] > 100 µM | [12] > 100 µM | [13] 74.6 µM | [14] > 100 µM | [15] > 100 µM | [16] > 100 µM

Cn1cnc([N+](=O)[O-])c1Sc1n[nH]c(-c2ccc(Cl)cc2)n1
inactive: [1] 21.5 µM | [18] 13.1 µM | [2] 21.7 µM | [3] 15.3 µM | [4] 15 µM | [5] 19.1 µM | [6] 20.8 µM | [7] 14.4 µM | [8] 18.6 µM | [9] 23.9 µM | [10] 18.1 µM | [11] 23.4 µM | [12] 19.5 µM | [14] 15.3 µM | [15] 14.5 µM | [16] 30.9 µM | [17] 20.7 µM

CCOC(=O)C(=O)CC(=O)C(Br)C(Br)c1ccc(Cl)cc1 (configuration not stated)
inactive: [1] > 100 µM | [2] 39.6 µM | [4] 29.2 µM | [5] > 100 µM | [6] > 100 µM | [7] 46 µM | [8] > 100 µM | [9] > 100 µM | [10] 23.3 µM | [11] > 100 µM | [13] 17.2 µM | [14] 29.7 µM | [15] 24.6 µM | [16] > 100 µM | [17] 26.4 µM

C[s+]1c2ccccc2c2ccccc21
inactive: [1] > 100 µM | [18] 92.5 µM | [2] > 100 µM | [3] > 100 µM | [4] > 100 µM | [5] 34.2 µM | [6] > 100 µM | [7] > 100 µM | [9] > 100 µM | [10] > 100 µM | [11] > 100 µM | [12] > 100 µM | [13] > 100 µM | [14] > 100 µM | [17] 74.1 µM

CC1=C(C(=O)CC(=O)C(=O)Nc2ccc(Cl)cc2C)Sc2ccccc2N1
inactive: [1] > 100 µM | [2] > 100 µM | [3] > 100 µM | [4] > 100 µM | [5] > 100 µM | [6] > 100 µM | [7] > 100 µM | [8] > 100 µM | [9] > 100 µM | [10] > 100 µM | [11] > 100 µM | [12] > 100 µM | [13] > 100 µM | [14] > 100 µM | [15] 22.8 µM | [16] > 100 µM | [17] > 100 µM

N=C(N)NS(=O)(=O)c1ccc(NC(=O)c2cccc3c(Nc4ccc(S(=O)(=O)N=C(N)N)cc4)c4ccccc4nc23)cc1
inactive: [1] > 100 µM | [2] 31.4 µM | [3] 41.1 µM | [4] 43.3 µM | [5] > 100 µM | [6] > 100 µM | [7] 45.8 µM | [8] 6.05 µM | [9] 71 µM | [10] 50.1 µM | [11] 88.1 µM | [12] 28.8 µM | [13] 27 µM | [14] 82.8 µM | [15] > 100 µM | [16] 72.6 µM | [17] > 100 µM

O=C1c2ccccc2C(=O)N1CC#CCO
inactive: [1] > 100 µM | [18] > 100 µM | [2] > 100 µM | [3] > 100 µM | [5] > 100 µM | [6] > 100 µM | [7] > 100 µM | [9] > 100 µM | [10] > 100 µM | [11] > 100 µM | [12] > 100 µM | [13] > 100 µM | [14] > 100 µM | [16] 95.5 µM | [17] > 100 µM

CCOC(=O)/C(=C\c1ccc(N(CCC#N)CCC#N)cc1C)NC(=O)/C=C/c1ccccc1
inactive: [1] > 100 µM | [2] > 100 µM | [3] > 100 µM | [4] > 100 µM | [5] > 100 µM | [6] > 100 µM | [7] > 100 µM | [8] > 100 µM | [9] > 100 µM | [10] > 100 µM | [11] > 100 µM | [12] > 100 µM | [13] > 100 µM | [14] > 100 µM | [16] > 100 µM | [17] > 100 µM

OCC1OC2c3ccccc3COC2C1OCc1ccccc1 (configuration not stated)
inactive: [18] > 100 µM | [2] > 100 µM | [5] > 100 µM | [6] > 100 µM | [7] 69.5 µM | [8] > 100 µM | [9] > 100 µM | [10] > 100 µM | [11] 88.9 µM | [12] > 100 µM | [14] > 100 µM | [16] > 100 µM | [17] > 100 µM

CC(C)(C)/N=C\N(C=C(c1ccccc1)c1ccccc1)C1CCCCC1
inactive: [1] > 100 µM | [18] 18 µM | [2] 36.3 µM | [3] 50.5 µM | [4] 25.2 µM | [6] 38.2 µM | [7] 44.1 µM | [8] 33.7 µM | [9] 93.1 µM | [10] 29.8 µM | [11] 32 µM | [12] 32.1 µM | [14] 35 µM | [15] 17.9 µM | [17] > 100 µM

CC(O)CNC(=O)C(C)Oc1ccc(OCC2CCCCC2)cc1 (configuration not stated)
inactive: [3] > 100 µM | [4] > 100 µM | [5] > 100 µM | [6] > 100 µM | [7] > 100 µM | [8] > 100 µM | [10] > 100 µM | [11] 84.1 µM | [12] > 100 µM | [13] > 100 µM | [14] > 100 µM | [16] > 100 µM | [17] > 100 µM

COC(=O)c1nc(NN)cc(O)c1CCCCCc1c(O)nc(NN)nc1C(=O)OC
inactive: [1] > 100 µM | [2] > 59.3 µM | [3] > 100 µM | [4] > 100 µM | [5] > 100 µM | [6] > 100 µM | [7] > 100 µM | [8] > 100 µM | [9] > 100 µM | [10] > 100 µM | [11] > 100 µM | [12] > 100 µM | [13] > 100 µM | [14] > 100 µM | [15] > 100 µM | [16] > 100 µM | [17] > 100 µM

CC(C)=CC(=O)CC(=O)C(=O)Nc1ccc(Cl)c(Cl)c1
inactive: [1] > 100 µM | [18] > 100 µM | [2] > 100 µM | [3] > 100 µM | [5] > 100 µM | [6] > 100 µM | [7] > 100 µM | [8] > 100 µM | [9] > 100 µM | [10] > 100 µM | [11] > 100 µM | [12] > 100 µM | [13] > 100 µM | [14] > 100 µM | [16] > 100 µM | [17] > 100 µM

CC(C)(C)[Si](Nc1ccccc1)(c1ccccc1)c1ccccc1
inactive: [1] 16.8 µM | [2] 17.4 µM | [3] 12.5 µM | [4] 12.2 µM | [5] 5.79 µM | [6] 18.4 µM | [7] 10.6 µM | [8] 12.1 µM | [9] 16 µM | [10] 14.3 µM | [11] 13.3 µM | [12] 13.8 µM | [13] 13.6 µM | [14] 16.6 µM | [15] 13.9 µM | [16] 17.1 µM | [17] 14.1 µM

CC[C@H](C)N(CCN)C(=O)c1cc2ccccc2c(-c2ccccc2Cl)n1
inactive: [1] 17.5 µM | [18] 10.8 µM | [2] 14.9 µM | [3] 2.15 µM | [4] 14.3 µM | [5] 12.7 µM | [6] 14.1 µM | [7] 10.8 µM | [9] 11.5 µM | [10] 16.6 µM | [11] 15.1 µM | [12] 11.6 µM | [13] 7.67 µM | [14] 13.5 µM | [17] 16.1 µM

O=C(NCCCC/N=c1/cccccc1NCCCCNC(=O)OCc1ccccc1)OCc1ccccc1
inactive: [1] 21.2 µM | [2] 17 µM | [3] 16.3 µM | [4] 16.4 µM | [5] 7.43 µM | [6] 11.5 µM | [7] 19.4 µM | [8] 18.7 µM | [9] 22.9 µM | [10] 14.3 µM | [11] 13.5 µM | [12] 16.1 µM | [13] 13.2 µM | [14] 22.1 µM | [15] 3.14 µM | [16] 20.5 µM | [17] 23.8 µM
